In the METLIN SMRT retention time set (Domingo-Almenara et al. 2019):

Assay: gradient 5% acetonitrile 3 min, to 50% in 2 min, to 85% in 15 min, held 3 min, 100 µL/min
Conditions: column: Zorbax Extend-C18 2.1 x 50 mm; eluents: water / acetonitrile, 0.1% formic acid
Procedure, shortened: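 The mobile phases were water and acetonitrile, each with 0.1% formic acid, pumped at 100 μL/min through a Zorbax Extend-C18 column (2.1 × 50 mm, 1.8 μm). Pure standards were injected as mixtures of ~100 molecules and detected by a quadrupole time-of-flight mass spectrometer in positive and negative ionization mode. Retention time came from computationally picked adduct peaks, each inspected by hand.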

Work on `CC(=O)N1CCCC1c1nc(C2CN(C(=O)NCc3ccco3)C2)no1` (stereo not given) yielded an RP-LC retention time of 617 s.
For `CCOC(=O)c1noc2ncnc(Nc3cccc(C)c3C)c12`, the RP-LC retention time was 948 s.
`CCOc1ccc(NC(=O)Cn2c(C)nc3onc(C)c3c2=O)cc1` showed an RP-LC retention time of 755 s.
Work on `COc1ccccc1N1CCN(C(=O)c2sc3cccc(F)c3c2OC)CC1` yielded an RP-LC retention time of 1050 s.
In the case of `O=C(NC1CCCCC1)c1nnc(-c2ccc(S(=O)(=O)N3CCCC3)cc2)o1`, the RP-LC retention time is reported as 952 s.
Compound `Cc1ccc(NC(=O)N2CCC(N3CCN(Cc4ccccc4)C3=O)CC2)cc1F` has an RP-LC retention time of 872 s.
Compound `COCCCNC(=O)N1CCCC(C)(C(=O)NCc2ccc(C)cc2)C1` (stereo not given) has an RP-LC retention time of 720 s.
For `O=C(CC1CCCCC1)NC(Cc1ccccc1)C(=O)N1CCN(c2ccccn2)CC1` (stereo not given), the RP-LC retention time was 695 s.
Compound `CC(C)CN1CCN(C(=O)c2cnc(-c3ccccc3)nc2-c2ccncc2)CC1` has an RP-LC retention time of 646 s.
Work on `CCOc1ccc(N2C(=O)CN(CCc3ccccc3F)[C@H]3CS(=O)(=O)C[C@H]32)cc1` yielded an RP-LC retention time of 840 s.
`COc1cc(Nc2c(C(=O)N3CCCC(C)C3)cnc3nc(C)ccc23)cc(OC)c1` (stereo not given) gave an RP-LC retention time of 657 s.
For `COc1cccc(-c2ccc3nc(N4CCC(C(=O)NCCN(C)C)CC4)sc3n2)c1`, the RP-LC retention time was 669 s.
In the case of `COC(=O)C1CCN(S(=O)(=O)c2ccc(Cl)c(-c3nnc(-c4ccccc4)o3)c2)CC1`, the RP-LC retention time is reported as 1040 s.
Compound `O=C(c1ccc2c(c1)OCO2)N1CCCN(c2nnc3ccc(Cl)cn23)CC1` has an RP-LC retention time of 591 s.
In the case of `COc1ccc(C)cc1NC(=O)C1N(C(C)C)C(=O)C12CCCC2` (stereo not given), the RP-LC retention time is reported as 844 s.
For `Cc1ccc(C(=O)N2CCC3(CC2)N=C(c2ccc(Cl)cc2)NO3)cc1`, the RP-LC retention time was 895 s.
With `c1csc(CN2CCC(Oc3ccccc3-c3nc(-c4cnccn4)no3)C2)c1` (stereo not given) the RP-LC retention time was 662 s.
For `CC1(C(=O)NCc2ccccc2)CCCN(C(=O)Nc2cccc(Cl)c2)C1` (stereo not given), the RP-LC retention time was 966 s.
Work on `CCc1nc2ccc(-c3noc(C(C)NC(=O)c4ccco4)n3)cc2n1CC` (stereo not given) yielded an RP-LC retention time of 621 s.
In the case of `CCCn1cc(C(=O)NCCCN(C)C)c(S(=O)(=O)N2CCN(c3ccc(Cl)cc3)CC2)n1`, the RP-LC retention time is reported as 757 s.
With `Cc1ccc(-c2cc3c(=O)n(Cc4nc(-c5ccccc5)no4)ncn3n2)c(C)c1` the RP-LC retention time was 1200 s.
`Cc1sc(-c2nc(C(C)C)cs2)cc1S(=O)(=O)N1CCCCC1` showed an RP-LC retention time of 1310 s.
Work on `CC(=O)N1CCN(c2nc3c(s2)CC(C(=O)Nc2cccc4c2CCCC4)CC3)CC1` (stereo not given) yielded an RP-LC retention time of 632 s.
Work on `CC12COC3(C(=O)Nc4ccc(F)cc4)CC1CCC32C` (stereo not given) yielded an RP-LC retention time of 1030 s.
For `CN(CC1CCOC1)C(=O)Nc1ccccc1C(F)(F)F` (stereo not given), the RP-LC retention time was 713 s.
With `Cc1cc(NC(=O)CSc2nnc(Cc3ccccc3)o2)no1` the RP-LC retention time was 716 s.
For `CCn1nnc2cc(-c3noc(-c4ccc(NC(C)=O)cc4)n3)ccc21`, the RP-LC retention time was 812 s.
`CN(C)c1ccc(Nc2nc(-c3ccc(Br)cc3)cs2)cc1` gave an RP-LC retention time of 787 s.
For `COc1cc(NC(=O)N2CC(C)Sc3ccccc32)cc(OC)c1OC` (stereo not given), the RP-LC retention time was 961 s.
In the case of `COc1ccc(NC(=O)NCC(=O)N2CCc3ccccc32)c(OC)c1`, the RP-LC retention time is reported as 762 s.
In the case of `Cc1cc(NC(=O)C2CCN(C(=O)c3nc4ccccc4s3)CC2)no1`, the RP-LC retention time is reported as 746 s.
`CN(C)S(=O)(=O)c1ccc2c(c1)N(CC(=O)Nc1ccc(Cl)cc1)C(=O)C1CCCCN21` (stereo not given) showed an RP-LC retention time of 988 s.
For `CCN(CC)c1nc(-c2cccc(C)c2)nnc1C`, the RP-LC retention time was 719 s.
Work on `O=C(NCCN1CCCCCC1)C(=O)Nc1ccc2nc3n(c(=O)c2c1)CCCCC3` yielded an RP-LC retention time of 596 s.
`CCCC(Nc1nc(C(=O)OCC)nc2ccccc12)c1cccs1` (stereo not given) showed an RP-LC retention time of 933 s.
Work on `Cc1ccc(NC(=O)N2CCN(c3cc(C)nc(N4CCCC4)n3)CC2)cc1` yielded an RP-LC retention time of 677 s.
In the case of `COc1ccc(S(=O)(=O)N2C[C@H]3CN(C(=O)Nc4cccc(OC)c4)C[C@@H](C2)O3)cc1`, the RP-LC retention time is reported as 881 s.
With `CCNc1cc(N2CCC(CCC(=O)NCc3c(C)nn(C)c3C)CC2)ncn1` the RP-LC retention time was 575 s.
`O=C(NCc1ccc2c(c1)OCO2)C1CCCN(c2cnc3ccccc3n2)C1` (stereo not given) gave an RP-LC retention time of 736 s.
`N#CSc1ccc(NC(=O)c2ccc(-n3cnnn3)cc2)cc1` gave an RP-LC retention time of 754 s.
For `O=C(Cn1cc(-c2ccccc2)c2ncn(C3CC3)c(=O)c21)NCc1ccco1`, the RP-LC retention time was 799 s.
With `COCCNC(=O)c1nc2ccccn2c1-c1ccc(F)cc1` the RP-LC retention time was 699 s.
`CCCCN(C)c1ncc(C(=O)Nc2ccccc2)c(N)n1` showed an RP-LC retention time of 702 s.
For `COc1cccc(NC(=O)C2c3cc(OC)c(OC)cc3C(=O)N3CCc4ccccc4C23)c1` (stereo not given), the RP-LC retention time was 809 s.
With `CCC(=O)N1CCCc2ccc(NC(=O)c3ccco3)cc21` the RP-LC retention time was 729 s.
Compound `CCc1nc2c(c(=O)n1CC(=O)NCc1ccc(F)cc1)CN(Cc1ccccc1)CC2` has an RP-LC retention time of 649 s.
Compound `O=C(Cn1c(=O)c2cccn2c2ccccc21)Nc1ccc(Cl)cc1` has an RP-LC retention time of 901 s.
`CCn1ccc2ccc(CCC(=O)N3CCN(c4ccccc4)CC3)cc21` gave an RP-LC retention time of 1030 s.
Compound `Cc1ccc2nc(CN3CCN(C(=O)Nc4ccc(F)cc4F)CC3)oc2c1` has an RP-LC retention time of 706 s.
With `CCCCn1nnc(NCc2ccc(-c3ccc(Cl)cc3Cl)o2)n1` the RP-LC retention time was 1280 s.
For `COc1cc(OC)c(NS(=O)(=O)c2cc(-c3c(C)noc3NC(C)=O)ccc2C)cc1Cl`, the RP-LC retention time was 813 s.
`COc1ccc(C(=O)N2CCC3(CC2)NC(=O)c2ccc(F)cc2N3C)cc1` gave an RP-LC retention time of 740 s.
In the case of `O=C(NCc1ccco1)C1CN(C(=O)c2ccc(F)c(F)c2)C1`, the RP-LC retention time is reported as 663 s.
For `COc1cccc(CNC(=O)c2nnc(-c3ccc(S(=O)(=O)N4CCCC4)cc3)o2)c1`, the RP-LC retention time was 874 s.
`COc1ccc(N2CCCCn3c2nc2c3c(=O)n(C)c(=O)n2C)cc1` showed an RP-LC retention time of 759 s.
Compound `CCN1CC(c2nc(-c3ccccc3)no2)C2(CCCC2)C1` (stereo not given) has an RP-LC retention time of 709 s.
`CC(C)NC(=O)C1CCN(c2nc3ccc(-c4cccc(F)c4)nc3s2)CC1` gave an RP-LC retention time of 942 s.
With `COc1cccc(N2C(=O)C3N=NN(c4ccc(C)c(F)c4)C3C2=O)c1` (stereo not given) the RP-LC retention time was 1110 s.
`Cc1ccn2c(NC(=O)c3ccc(Cl)cc3)c(-c3ccc(F)cc3)nc2c1` gave an RP-LC retention time of 693 s.
Work on `O=C(O)c1ccc(N2CCN(c3ccccn3)CC2)c(NS(=O)(=O)c2cc(F)ccc2F)c1` yielded an RP-LC retention time of 640 s.
For `Cc1ccn(S(=O)(=O)c2ccc(C(C)(C)C)cc2)n1`, the RP-LC retention time was 983 s.
Compound `CCc1ccc(CNC(=O)Cn2c(CC)nc3onc(C)c3c2=O)cc1` has an RP-LC retention time of 907 s.
`Cc1ccc(-c2cc(C(=O)NC3CCCCC3)c(C)[nH]2)cc1C` gave an RP-LC retention time of 1020 s.
In the case of `O=C(Cc1ccc(Cl)cc1)N1CCc2nc[nH]c2C1`, the RP-LC retention time is reported as 590 s.
`Cc1nnc2n1CCC(N(C)C(=O)c1ccsc1)CC2` (stereo not given) showed an RP-LC retention time of 566 s.
Compound `COc1ccc2cc(C(=O)NCCC(=O)NCCc3c[nH]c4ccccc34)[nH]c2c1` has an RP-LC retention time of 775 s.
With `CCCCN1CCN(S(=O)(=O)c2cc(-c3nnc(CC)o3)co2)CC1` the RP-LC retention time was 608 s.
In the case of `CSc1nc(N2CCCC2)c2cnn(CCNC(=O)CSc3nnnn3C)c2n1`, the RP-LC retention time is reported as 651 s.
Work on `CNC(=O)CCNc1c(-c2ccc(OC)cc2)nc2cnccn12` yielded an RP-LC retention time of 588 s.
Compound `O=C(NC1CCCC1)C1CC(=O)N(c2ccc3c(c2)CCN3C(=O)C2CC2)C1` (stereo not given) has an RP-LC retention time of 704 s.
Work on `Cc1ccc2c(c1)N(S(C)(=O)=O)CCC(C(=O)NC1CCCCCC1)O2` (stereo not given) yielded an RP-LC retention time of 957 s.
Work on `COc1cc(-c2oc3cc(O)cc(O)c3c(=O)c2O[C@@H]2O[C@H](CO)[C@@H](O)[C@H](O)[C@H]2O)ccc1O` yielded an RP-LC retention time of 684 s.
In the case of `Cc1ccccc1N1CCN(C(=O)c2ccc(CN3CCN(C(C)C)C(=O)C3=O)cc2)CC1`, the RP-LC retention time is reported as 811 s.
Compound `COc1nc2ccccc2nc1N1CCCC(C(=O)NC(C)c2ccccc2)C1` (stereo not given) has an RP-LC retention time of 1050 s.
For `CCCCNC(=O)c1ccc2nc(CCc3ccc(NC(=O)CC)cc3)[nH]c2c1`, the RP-LC retention time was 570 s.
`CC(=O)Nc1ccc(SCc2c(F)cccc2Cl)nn1` showed an RP-LC retention time of 787 s.
Work on `CC(O)(CNC(=O)NCc1cccs1)C1CC1` (stereo not given) yielded an RP-LC retention time of 632 s.
`Cc1cc(C)nc(NS(=O)(=O)c2ccc(Nc3nc(-c4ccc(C)c(C)c4)cs3)cc2)n1` showed an RP-LC retention time of 1020 s.
For `Cc1cccc(Sc2nccnc2SCC(=O)N2CCN(c3ccccn3)CC2)c1`, the RP-LC retention time was 721 s.
With `COc1ccc(Br)cc1CNC(=O)c1ccc2c(c1)NC(=O)C1CCCCN21` (stereo not given) the RP-LC retention time was 884 s.
With `Cc1ccnc(N2CCC(C(=O)NCCSCc3ccco3)CC2)n1` the RP-LC retention time was 680 s.
Work on `O=C(NCC(O)Cc1ccccc1)c1c(F)cccc1F` (stereo not given) yielded an RP-LC retention time of 678 s.
`Cc1ccsc1C(=O)NC1CCN(c2cc(-c3ccccc3)[nH]n2)C1` (stereo not given) gave an RP-LC retention time of 704 s.
Compound `Cc1ccc(NC(=O)N2CCc3nc[nH]c3C2)c(Cl)c1` has an RP-LC retention time of 585 s.
For `Cn1c(=O)c2cc(C(=O)NCc3ccc(Cl)cc3)sc2n(C)c1=O`, the RP-LC retention time was 800 s.
Compound `Cc1ccccc1NC(=O)N(C)Cc1ccsc1` has an RP-LC retention time of 866 s.
`CS(=O)(=O)c1ccc(Sc2nc3ccccc3s2)c([N+](=O)[O-])c1` gave an RP-LC retention time of 900 s.
`O=C(Cn1c(=O)c2cccn2c2ccc(F)cc21)NCCCN1CCCCC1` gave an RP-LC retention time of 600 s.
With `CC(C)CCNC(=O)C1CCCN(c2nnc3ccc(C(F)(F)F)cn23)C1` (stereo not given) the RP-LC retention time was 829 s.
Compound `O=C(Nc1cnn(-c2ncncc2N2CCOCC2)c1)c1cc2c(s1)CCCC2` has an RP-LC retention time of 789 s.
